# Reference: PubChem BioAssay (NCI)
#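 Cells were grown in 96-well plates and exposed to each compound for 48 hours at five concentrations; endpoints were interpolated linearly between bracketing concentrations, or set to the highest concentration if not reached. TGI: concentration producing complete growth inhibition.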
# How the values were obtained:
# Test in all cases: growth of human tumour cells (NCI), 48 h
# NCI-H226 lung = test system: NCI-H226 lung
# BT-549 breast = test system: BT-549 breast
# 786-0 renal = test system: 786-0 renal
# OVCAR-8 ovarian = test system: OVCAR-8 ovarian
# NCI/ADR-RES ovarian = test system: NCI/ADR-RES ovarian
# A549 NSCLC = test system: A549 NSCLC
# KM12 colon = test system: KM12 colon
# SK-OV-3 ovarian = test system: SK-OV-3 ovarian
# MOLT-4 leukemia = test system: MOLT-4 leukemia
# UACC-257 melanoma = test system: UACC-257 melanoma
# MDA-N = test system: MDA-N
# CAKI-1 renal = test system: CAKI-1 renal
# RPMI-8226 leukemia = test system: RPMI-8226 leukemia
# ACHN renal = test system: ACHN renal
# HT29 colon = test system: HT29 colon
# RXF 393 renal = test system: RXF 393 renal
# HCT-15 colon = test system: HCT-15 colon
# SK-MEL-5 melanoma = test system: SK-MEL-5 melanoma
# SK-MEL-2 melanoma = test system: SK-MEL-2 melanoma
# SF-539 CNS = test system: SF-539 CNS
# PC-3 prostate = test system: PC-3 prostate
# HOP-92 NSCLC = test system: HOP-92 NSCLC
# SF-295 CNS = test system: SF-295 CNS
# M14 melanoma = test system: M14 melanoma
# SR leukemia = test system: SR leukemia
# DU-145 prostate = test system: DU-145 prostate
# SNB-75 CNS = test system: SNB-75 CNS
# T-47D breast = test system: T-47D breast
# SF-268 CNS = test system: SF-268 CNS
# SNB-19 CNS = test system: SNB-19 CNS
# OVCAR-4 ovarian = test system: OVCAR-4 ovarian
# MALME-3M melanoma = test system: MALME-3M melanoma
# UACC-62 melanoma = test system: UACC-62 melanoma
# OVCAR-3 ovarian = test system: OVCAR-3 ovarian
# IGROV1 ovarian = test system: IGROV1 ovarian
# TK-10 renal = test system: TK-10 renal
# SK-MEL-28 melanoma = test system: SK-MEL-28 melanoma
# MDA-MB-231 breast = test system: MDA-MB-231 breast
# EKVX NSCLC = test system: EKVX NSCLC
# NCI-H23 lung = test system: NCI-H23 lung
# SW-620 colon = test system: SW-620 colon
# MDA-MB-435 = test system: MDA-MB-435
# MCF7 breast = test system: MCF7 breast
# HCT-116 colon = test system: HCT-116 colon
# COLO 205 colon = test system: COLO 205 colon
# OVCAR-5 ovarian = test system: OVCAR-5 ovarian
# NCI-H522 lung = test system: NCI-H522 lung
# LOX IMVI melanoma = test system: LOX IMVI melanoma
# HOP-62 NSCLC = test system: HOP-62 NSCLC
# K-562 leukemia = test system: K-562 leukemia
# A498 renal = test system: A498 renal
# U251 CNS = test system: U251 CNS
# HS 578T breast = test system: HS 578T breast
# SN12C renal = test system: SN12C renal
# UO-31 renal = test system: UO-31 renal
# NCI-H460 lung = test system: NCI-H460 lung
# HCC-2998 colon = test system: HCC-2998 colon
# CCRF-CEM leukemia = test system: CCRF-CEM leukemia
smiles,measurement,setting,value
Cc1ncc(CSc2ccccc2N)c(CO)c1O,TGI,NCI-H226 lung,> 100 µM
same,TGI,BT-549 breast,> 100 µM
same,TGI,786-0 renal,> 100 µM
same,TGI,OVCAR-8 ovarian,> 100 µM
same,TGI,NCI/ADR-RES ovarian,> 100 µM
same,TGI,A549 NSCLC,> 100 µM
same,TGI,KM12 colon,> 100 µM
same,TGI,SK-OV-3 ovarian,> 100 µM
same,TGI,MOLT-4 leukemia,> 100 µM
same,TGI,UACC-257 melanoma,> 100 µM
same,TGI,MDA-N,> 100 µM
same,TGI,CAKI-1 renal,> 100 µM
same,TGI,RPMI-8226 leukemia,> 100 µM
same,TGI,ACHN renal,> 100 µM
same,TGI,HT29 colon,> 100 µM
same,TGI,RXF 393 renal,> 100 µM
same,TGI,HCT-15 colon,> 100 µM
same,TGI,SK-MEL-5 melanoma,> 100 µM
same,TGI,SK-MEL-2 melanoma,> 100 µM
same,TGI,SF-539 CNS,> 100 µM
same,TGI,PC-3 prostate,> 100 µM
same,TGI,HOP-92 NSCLC,> 100 µM
same,TGI,SF-295 CNS,> 100 µM
same,TGI,M14 melanoma,> 100 µM
same,TGI,SR leukemia,> 100 µM
same,TGI,DU-145 prostate,> 100 µM
same,TGI,SNB-75 CNS,> 100 µM
same,TGI,T-47D breast,> 100 µM
same,TGI,SF-268 CNS,> 100 µM
same,TGI,SNB-19 CNS,> 100 µM
same,TGI,OVCAR-4 ovarian,> 100 µM
same,TGI,MALME-3M melanoma,> 100 µM
same,TGI,UACC-62 melanoma,> 100 µM
same,TGI,OVCAR-3 ovarian,> 100 µM
same,TGI,IGROV1 ovarian,> 100 µM
same,TGI,TK-10 renal,> 100 µM
same,TGI,SK-MEL-28 melanoma,> 100 µM
same,TGI,MDA-MB-231 breast,> 100 µM
same,TGI,EKVX NSCLC,> 100 µM
same,TGI,NCI-H23 lung,> 100 µM
same,TGI,SW-620 colon,> 100 µM
same,TGI,MDA-MB-435,> 100 µM
same,TGI,MCF7 breast,> 100 µM
same,TGI,HCT-116 colon,> 100 µM
same,TGI,COLO 205 colon,> 100 µM
same,TGI,OVCAR-5 ovarian,> 100 µM
same,TGI,NCI-H522 lung,> 100 µM
same,TGI,LOX IMVI melanoma,> 100 µM
same,TGI,HOP-62 NSCLC,> 100 µM
same,TGI,K-562 leukemia,> 100 µM
same,TGI,A498 renal,> 100 µM
same,TGI,U251 CNS,> 100 µM
same,TGI,HS 578T breast,> 100 µM
same,TGI,SN12C renal,> 100 µM
CC1OC(OC2C(O)COC(OC3C(C)OC(OC4C(OC(=O)[C@]56CCC(C)(C)C[C@@H]5C5=CCC7[C@@]8(C)C[C@H](O)[C@H](OC9OC(CO)C(O)C(O)C9O)[C@@](C)(CO)[C@@H]8CC[C@@]7(C)[C@]5(C)CC6)OCC(O)C4O)C(O)C3OC3OCC(O)C(O)C3O)C2O)C(O)C(O)C1O (stereo not given in full),TGI,NCI-H226 lung,46.1 µM
same,TGI,BT-549 breast,52.6 µM
same,TGI,786-0 renal,29.2 µM
same,TGI,OVCAR-8 ovarian,37.3 µM
same,TGI,UO-31 renal,17.6 µM
same,TGI,NCI-H460 lung,41.6 µM
same,TGI,NCI/ADR-RES ovarian,46 µM
same,TGI,A549 NSCLC,28.2 µM
same,TGI,KM12 colon,72.9 µM
same,TGI,SK-OV-3 ovarian,34.7 µM
same,TGI,MOLT-4 leukemia,46 µM
same,TGI,UACC-257 melanoma,31.7 µM
same,TGI,MDA-N,35.2 µM
same,TGI,CAKI-1 renal,26.8 µM
same,TGI,RPMI-8226 leukemia,> 100 µM
same,TGI,ACHN renal,36.1 µM
same,TGI,RXF 393 renal,34.1 µM
same,TGI,HCT-15 colon,51.4 µM
same,TGI,SK-MEL-5 melanoma,36.2 µM
same,TGI,SK-MEL-2 melanoma,37.9 µM
same,TGI,SF-539 CNS,36.3 µM
same,TGI,PC-3 prostate,29.5 µM
same,TGI,HOP-92 NSCLC,44 µM
same,TGI,SF-295 CNS,39.2 µM
same,TGI,M14 melanoma,23.2 µM
same,TGI,SR leukemia,46.1 µM
same,TGI,DU-145 prostate,36.2 µM
same,TGI,SNB-75 CNS,41.1 µM
same,TGI,T-47D breast,44.8 µM
same,TGI,SF-268 CNS,47.5 µM
same,TGI,SNB-19 CNS,33.7 µM
same,TGI,OVCAR-4 ovarian,48.8 µM
same,TGI,MALME-3M melanoma,54.7 µM
same,TGI,UACC-62 melanoma,41.1 µM
same,TGI,OVCAR-3 ovarian,37.9 µM
same,TGI,TK-10 renal,33 µM
same,TGI,SK-MEL-28 melanoma,25.9 µM
same,TGI,MDA-MB-231 breast,31 µM
same,TGI,EKVX NSCLC,23.8 µM
same,TGI,NCI-H23 lung,40.8 µM
same,TGI,SW-620 colon,32.2 µM
same,TGI,MDA-MB-435,44.8 µM
same,TGI,MCF7 breast,43.8 µM
same,TGI,HCT-116 colon,38.5 µM
same,TGI,COLO 205 colon,19.3 µM
same,TGI,OVCAR-5 ovarian,30.2 µM
same,TGI,NCI-H522 lung,62.4 µM
same,TGI,LOX IMVI melanoma,37 µM
same,TGI,HOP-62 NSCLC,35.4 µM
same,TGI,HCC-2998 colon,33.9 µM
same,TGI,CCRF-CEM leukemia,34.9 µM
same,TGI,K-562 leukemia,> 100 µM
same,TGI,A498 renal,32.7 µM
same,TGI,U251 CNS,39.1 µM
same,TGI,HS 578T breast,63.9 µM
same,TGI,SN12C renal,35 µM
